Data taken from US9468632B2, “Methods and compositions for targeting cancer stem cells” (The Regents of the University of Michigan, priority 2012, dated 2016).
Positions count from the first letter of the chain named.

Legend:
ALDH1A3 = target: T1, ALDH1A3 (Homo sapiens, UniProt P47895); assay: In vitro enzymatic inhibition assay, ALDH1A3; type: biochemical; details: 2 min incub
T1 sequence (P47895 1-512): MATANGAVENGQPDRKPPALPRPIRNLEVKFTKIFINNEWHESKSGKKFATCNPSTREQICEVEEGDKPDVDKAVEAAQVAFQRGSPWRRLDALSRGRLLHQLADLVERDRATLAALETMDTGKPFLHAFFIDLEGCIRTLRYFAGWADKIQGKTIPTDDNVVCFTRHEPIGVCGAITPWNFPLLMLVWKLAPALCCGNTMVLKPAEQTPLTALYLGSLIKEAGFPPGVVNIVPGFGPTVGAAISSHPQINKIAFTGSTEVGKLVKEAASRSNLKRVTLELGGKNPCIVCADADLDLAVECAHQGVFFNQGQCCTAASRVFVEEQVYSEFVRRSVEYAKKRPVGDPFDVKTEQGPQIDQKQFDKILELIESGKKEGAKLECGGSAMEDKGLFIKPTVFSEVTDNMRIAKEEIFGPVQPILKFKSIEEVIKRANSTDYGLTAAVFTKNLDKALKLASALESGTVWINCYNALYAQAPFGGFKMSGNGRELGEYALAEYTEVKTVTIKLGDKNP

ALDH1A1 (WT) = target: T2, ALDH1A1 (WT) (Homo sapiens, UniProt P00352); assay: In vitro enzymatic inhibition assay, ALDH1A1 (WT); type: biochemical
T2 sequence (P00352 1-501): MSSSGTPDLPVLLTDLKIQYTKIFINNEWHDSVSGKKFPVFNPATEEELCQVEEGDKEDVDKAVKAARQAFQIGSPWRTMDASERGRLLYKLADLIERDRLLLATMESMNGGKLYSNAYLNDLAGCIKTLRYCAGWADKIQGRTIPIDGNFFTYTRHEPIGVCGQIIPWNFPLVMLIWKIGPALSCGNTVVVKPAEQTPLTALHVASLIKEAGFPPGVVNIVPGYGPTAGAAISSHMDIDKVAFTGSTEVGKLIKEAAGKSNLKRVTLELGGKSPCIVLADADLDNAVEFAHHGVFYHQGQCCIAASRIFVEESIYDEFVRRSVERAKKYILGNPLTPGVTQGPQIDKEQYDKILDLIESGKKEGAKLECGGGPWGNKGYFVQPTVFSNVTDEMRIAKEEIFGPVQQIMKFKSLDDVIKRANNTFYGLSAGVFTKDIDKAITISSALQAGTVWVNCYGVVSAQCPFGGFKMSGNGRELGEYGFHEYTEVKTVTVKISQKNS

ALDH1A1 (S121) = target: T3, ALDH1A1 (S121) (Homo sapiens, UniProt P00352, N121S); assay: In vitro enzymatic inhibition assay, ALDH1A1 (S121); type: biochemical
T3 sequence (P00352 1-501 N121S): T2 sequence (P00352 1-501) with N121S

ALDH2 = ALDH2 (Homo sapiens, UniProt P05091); assay: In vitro enzymatic inhibition assay, ALDH2; type: biochemical
ALDH1A2 = target: T4, ALDH1A2 (Homo sapiens, UniProt O94788); assay: In vitro enzymatic inhibition assay, ALDH1A2; type: biochemical
T4 sequence (O94788 1-518): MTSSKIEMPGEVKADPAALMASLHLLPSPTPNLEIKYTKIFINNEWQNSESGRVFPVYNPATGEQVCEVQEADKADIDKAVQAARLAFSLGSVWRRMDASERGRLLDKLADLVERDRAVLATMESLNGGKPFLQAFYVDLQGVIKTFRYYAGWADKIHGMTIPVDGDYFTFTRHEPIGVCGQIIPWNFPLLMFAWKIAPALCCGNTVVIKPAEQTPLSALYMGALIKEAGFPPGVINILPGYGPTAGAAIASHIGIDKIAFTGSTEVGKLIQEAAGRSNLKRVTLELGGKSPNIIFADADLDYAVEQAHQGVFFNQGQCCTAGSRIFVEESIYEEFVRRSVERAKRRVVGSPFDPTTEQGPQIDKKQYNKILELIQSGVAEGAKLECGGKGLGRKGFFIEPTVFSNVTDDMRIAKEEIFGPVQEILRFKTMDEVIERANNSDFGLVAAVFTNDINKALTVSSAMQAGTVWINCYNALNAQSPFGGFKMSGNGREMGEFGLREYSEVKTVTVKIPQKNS

[1] = tested on: primary human tumor xenografts; assay: Primary human tumor xenografts from chemotherapy refractory ovarian cancer; type: in vivo, mice; details: treatment started at ˜500 mm^3
Text: In order to confirm in vivo activity against primary ovarian cancers, primary human tumor xenografts were generated from a patient with chemotherapy refractory ovarian cancer. Xenografts were allowed to grow until they reached ˜500 mm^3, and then treatment with either vehicle, cisplatin or cisplatin and UM 673 was initiated. […] After discontinuation of therapy, tumor regrowth was observed after approximately 4 weeks (FIG. 5D).

[2] = tested on: in vitro treated, PI-/Annexin-FACS isolated live cells; assay: Tumor initiation capacity of in vitro treated live cells injected into mice; type: in vivo
Protocol: An important functional aspect of a cancer stem cell is the ability to initiate tumors with limited cell numbers. In order to determine if UM673 could impact tumor initiation, cells were treated in vitro with a single dose of UM673 alone or in combination with cisplatin. Cells were allowed to recover for three days and then PI(−)/Annexin(−) live cells were faxed isolated and injected into mice. 200, 1000, or 5000 cells from each treatment group (n=4-10/group) were injected.

ALDH− cells = assay: Time to recovery after treatment, isolated ALDH− cells; type: cell-based
Text: (§1) A. Time to recovery for SKOV3 ovarian cancer cells treated with cisplatin or combined cisplatin and ALDH inhibitor. […] Cisplatin treated ALDH+ cells required approximately 6 days to recover whereas cisplatin treated ALDH− cells required 14 days to recover.

[3] = tested on: A2780 tumor cell xenografts; assay: A2780 tumor cell xenografts, tumor growth; type: in vivo, mice; details: unsorted A2780 cells, treatment from day 3
Protocol: 6-8 week old nude female mice were purchased from Charles River Laboratories. All xenograft experiments were performed with approval of the University Committee on Use and Care of Animals of the University of Michigan. To generate tumors, 7.5×10^4 unsorted A2780 cells or 7500 CD133+ sorted A2780 cells were combined with 100 μl of DPBS and 100 μl of Matrigel (BD Biosciences), and then implanted subcutaneously into bilateral axillae of each mouse. 3 days after inoculation with tumors, mice were given an intra-peritoneal injection of (1) control DMSO 40 μl, (2) Cisplatin 250 μg/ml, (3) UM #673 10 μM, or (4) Cisplatin plus UM #673 (n=9 mice per treatment group). Tumor growth was measured using calipers, and tumor volume was calculated based on the modified ellipsoid formula (L×W×W/2), where L is the length and W is the width of the tumor. The mice were euthanized when tumors reached 1.5 to 2 cm^3 and animal safety euthanasia guidelines were met. Intraperitoneal tumors were generated using 5×10^6 OVCAR8 in […] of PBS and injected I.P. 3 days after inoculation, mice were given intra-peritoneal injection of Cisplatin or Cisplatin plus UM #673.
The impact of UM673 as a single agent was evaluated. NOD/SCID mice were inoculated with 1×10^5 unsorted A2780 cells and treatment was initiated three days after tumor inoculation with either vehicle control or UM #673. […] This is consistent with other studies of CSC targeting agents.
The experiments were repeated in combination with cisplatin. In addition, xenografts from both whole cell line and FACS isolated CD133+ cells were treated.

ALDH+ cells = assay: Time to recovery after treatment, isolated ALDH+ cells; type: cell-based
Text: as §1

Sequence of ALDH2 (P05091 18-517): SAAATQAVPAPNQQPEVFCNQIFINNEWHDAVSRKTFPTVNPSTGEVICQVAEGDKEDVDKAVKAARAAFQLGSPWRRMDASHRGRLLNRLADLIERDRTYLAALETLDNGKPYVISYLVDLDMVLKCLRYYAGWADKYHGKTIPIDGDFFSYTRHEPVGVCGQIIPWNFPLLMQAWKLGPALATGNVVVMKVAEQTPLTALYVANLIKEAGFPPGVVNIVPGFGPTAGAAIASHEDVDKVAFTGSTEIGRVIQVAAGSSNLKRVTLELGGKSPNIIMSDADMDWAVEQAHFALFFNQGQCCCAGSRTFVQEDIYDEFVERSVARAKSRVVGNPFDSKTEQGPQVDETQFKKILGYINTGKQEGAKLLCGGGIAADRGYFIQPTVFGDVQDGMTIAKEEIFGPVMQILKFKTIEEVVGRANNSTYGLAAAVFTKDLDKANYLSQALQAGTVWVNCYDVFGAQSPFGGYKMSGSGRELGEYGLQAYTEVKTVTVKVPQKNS

| SMILES | IC50 (ALDH1A3) [nM] | IC50 (ALDH1A1 (WT)) [nM] | IC50 (ALDH1A1 (S121)) [nM] | IC50 (ALDH2) [nM] | IC50 (ALDH1A2) [nM] | tumor growth [1] | tumor initiation (tumors/injections) ([2]; 200 cells injected) | tumor initiation (tumors/injections) ([2]; 1000 cells injected) | tumor initiation (tumors/injections) ([2]; 5000 cells injected) | effect on tumor initiation capacity ([2]; compared to untreated controls) | time to recover (ALDH− cells) [days] | tumor growth [3] | time to recover back to initial cell levels (ALDH+ cells) |
| --- | --- | --- | --- | --- | --- | --- | --- | --- | --- | --- | --- | --- | --- |
| Cc1cc(N2Cc3ccccc3C2)ccc1C=O [673A] | 170 ± 28 | 216 ± 22 | 230 ± 10 | 1680 ± 190 | 211 ± 36 |  |  |  |  |  |  |  |  |
| O=Cc1ccc(N2Cc3ccccc3C2)cc1 [673B] | 1340 ± 480 | 450 ± 35 | 1240 ± 118 | > 20000 | 800 ± 147 |  |  |  |  |  |  |  |  |
| N.N.[Cl][Pt][Cl] [Cisplatin, reference compound] |  |  |  |  |  | no effect on tumor growth | 1/4 | 4/4 | 8/8 | neither cisplatin or UM673 affected tumor initiation | 14 | modest restrictions in tumor growth | approximately 6 days |
